Legend:
Format in all cases: in vivo
wheat = experiment: Improvement of plant height in wheat, pot trials (Use example H-2); settings: wheat cv. JB Asano, pots, 14 days at 20° C; untreated control = 100% (13.9 cm); pyraclostrobin 5 g ai/100 kg seeds as seed treatment, B. pumilus INR7 10 ml broth per seed as drench
Experimental: Pyraclostrobin was applied as commercial seed treatment formulation STAMINA (200 g/L a.i., BASF SE, Ludwigshafen, Germany).
In pot trials in Limburgerhof greenhouses, Bacillus pumilis INR7 was tested in wheat and maize as solo products and in combination with pyraclostrobin to show effects on plant height. The application of the pyraclostrobin was done as seed treatment and the seeds were treated in the BASF Seed Solutions Technology Center (SSTC) Limburgerhof using a batch lab treater. The respective amount of seeds was placed in the bowl of the treater and the slurry was dosed on the spinning disk.
The bacterials were grown in shake flasks and used as fermentation broth with a CFU of at least 1×10^12 per ml. This broth was added as a drench solution directly adjacent to the seeds with 10 ml for each seed kernel which makes 50 ml per pot.
The trial was sown in 8 cm pots and a mix of peat substrate and sand (ratio 1:4) was used as a substrate. […]
For the assessment, the plant height from all plants was measured in cm. […]
The expected relative plant height of active compound combinations were determined using Colby's formula (Colby, S. R. “Calculating synergistic and antagonistic responses of herbicide combinations”, Weeds 15, pp. 20-22, 1967) and compared with the observed efficacies. […]

Sclerotinia sclerotiorum = experiment: Action against Sclerotinia sclerotiorum in soybean using pot trials (Use example FG-6); settings: soy bean cv. Goriziana, pots, 14 days at 20° C; % of the untreated control (infection level 96%); pyraclostrobin 2.5 g ai/100 kg seeds as seed treatment, B. pumilus INR7 10 ml broth per seed as drench
Experimental: Pyraclostrobin was applied as commercial seed treatment formulation […], Ludwigshafen, Germany). The application of the pyraclostrobin was done as seed treatment and the seeds were treated in the BASF Seed Solutions Technology Center (SSTC) Limburgerhof using a batch lab treater. The respective amount of seeds was placed in the bowl of the treater and the slurry was dosed on the spinning disk. The B. pumilus INR7 were grown in shake flasks and used as fermentation broth with of at least 1×10^12 CFU per ml. This broth was added as a drench solution directly adjacent to the seeds with 10 ml for each seed kernel which makes 50 ml per pot. For the infection, rye kernels inoculated with Sclerotinia sclerotiorum were used. The trial was sown in 8 cm pots and as a substrate a mix of peat substrate and sand in the ratio 1:4 was used. The pots were filled with the substrate and the rye kernels inoculated with Sclerotinia sclerotiorum were placed directly adjacent to the seeds. In each pot 5 soy bean seeds (cv. Goriziana) were sown at a sowing depth of 2 cm, then covered with substrate. For each treatment 5 replications were made. […] For the assessment, the plants were evaluated according to a 2 class evaluation (healthy, diseased). Those figures were converted into efficacies in % of the untreated control and the efficacy (E) was calculated as follows using Abbot's formula.

Gaeumannomyces graminis = experiment: Action against Gaeumannomyces graminis in wheat using pot trials (Use example FG-7); settings: wheat cv. JB Asano, pots, 14 days at 20° C; % of the untreated control (infection 96%); pyraclostrobin 2.5 g ai/100 kg seeds as seed treatment, B. pumilus INR7 10 ml broth per seed as drench
Experimental: Pyraclostrobin was applied as commercial seed treatment formulation […], Ludwigshafen, Germany). The application of the pyraclostrobin was done as seed treatment and the seeds were treated in the BASF Seed Solutions Technology Center (SSTC) Limburgerhof using a batch lab treater. The respective amount of seeds was placed in the bowl of the treater and the slurry was dosed on the spinning disk. The B. pumilus INR7 were grown in shake flasks and used as fermentation broth with of at least 1×10^12 CFU per ml. This broth was added as a drench solution directly adjacent to the seeds with 10 ml for each seed kernel which makes 50 ml per pot. For the assessment, the plants were evaluated according to a 2 class evaluation (healthy, diseased). Those figures were converted into efficacies in % of the untreated control and the efficacy (E) was calculated as follows using Abbot's formula. Experimental setup was identical to Use example FG-6 unless described below. For the infection, rye kernels inoculated with Gaeumannomyces graminis were used. The trial was sown in 8 cm pots and a mix of peat substrate and sand (ratio 1:4) was used as a substrate. The pots were filled with the substrate and the rye kernels inoculated with Gaeumannomyces graminis were placed directly adjacent to the wheat seeds. […] JB Asano) were sown at a sowing depth of 1.5 cm and then covered with substrate. […]

In the case of Pyraclostrobin, the “Observed relative plant height” value (wheat) was 99.4%, the Observed efficacy (Sclerotinia sclerotiorum) was 16.7% and the Observed efficacy (Gaeumannomyces graminis) was 5.0%.

Source: patent publication US20160100585A1, “Pesticidal Mixtures” (priority 2012, published 2016)
